Here are results for 3 compounds from US20210393610A1, “COMPOSITIONS AND METHODS FOR TREATING GOUT AND HYPERURICEMIA” (Jiangsu Hengrui Medicine Co., Ltd., priority 2018, published 2021).

Series [1] in a line: PK interaction of the compound of Formula I-1, febuxostat and colchicine (PK parameters in plasma). Conditions: for AUC: plasma, oral, AUCss of the compound of Formula I-1, geometric mean. On the procedure: (§1) The subjects were screened and examined on D-21 to D-15. 0.5 mg of colchicine once a day (qd) were orally administered to those who passed the screening on an empty stomach (D-14 to D16). If the subject was receiving an uric acid-lowering therapy (including allopurinol, febuxostat, benzbromarone, probenecid and the like) at the time of screening, the drug should be withdrawn for at least 2 weeks before D1. The subjects were admitted to the phase I clinical trial ward on D-2, and medical history inquiry, physical examination, vital signs examination, 12-lead electrocardiogram (ECG) examination, blood pregnancy examination (for female of childbearing age) were conducted again [if D-2 was more than 20 days away from the screening period, then blood examination, urine routine examination, CK\CK-MB, blood biochemistry (including serum creatinine and uric acid) examination were also required].
During the hospital stay, the subjects were fasted for more than 10 hours after dinner everyday (with free access to water). […] On D2, the subjects on an empty stomach were subjected to blood sampling, followed by having a standard meal which should be eaten within 20 minutes. Except for before the drug administration and 1 hour after the drug administration, water was consumed as needed at other times. On D3 to 8, no less than 2 L of water was consumed daily. On D9, the subjects can be discharged from the hospital after completing relevant examinations and operations, with a total hospital stay of 10 days. On D16 to 23, the subjects came back to the phase I clinical trial ward for follow-up. Throughout the study period, the subjects should avoid strenuous exercise and prolonged bed rest. The drug administration scheme is detailed in Table 1.
Colchicine tablets: D-14 to D16, 0.5 mg qd, orally administered on an empty stomach; Febuxostat tablets: D1 and D8, 80 mg qd, orally administered on an empty stomach; Tablets of the compound of Formula I-1: D3 to D8, 10 mg qd, orally administered on an empty stomach.
G. Main Observation Indicator • i. PK parameters of the compound of Formula I-1, febuxostat (Ruiyang®) and colchicine in plasma.

Another series deals with serum uric acid (sUA). Nature of the series: PD interaction: serum uric acid (sUA) level after separate and combined administration. The format is in vivo, patients suffering from gout. On the procedure: as §1
During the hospital stay, the subjects were fasted for more than 10 hours after dinner everyday (with free access to water). […] On D2, the subjects on an empty stomach were subjected to blood sampling, followed by having a standard meal which should be eaten within 20 minutes. Except for before the drug administration and 1 hour after the drug administration, water was consumed as needed at other times. On D3 to 8, no less than 2 L of water was consumed daily. […]

The next series has as its system sUA. The conditions noted are these: after 6 months; febuxostat alone group; cited from earlier work.
For series [2] the following is noted: febuxostat alone group v.s. lesinurad 400 mg plus febuxostat group; cited from earlier work.
Setting [3] is: combined administration with febuxostat 80 mg.
The mark [4] stands for this setting: combined administration with the compound of Formula I-1, no statistical difference (P>0.05).
Where [5] appears, read: impact of compound of Formula I-1 on colchicine.
The mark [6] stands for this setting: impact of febuxostat on colchicine.
[7] abbreviates: single administration (colchicine 0.5 mg qd).
The mark [8] stands for this setting: impact of febuxostat on the compound of Formula I-1.

In the case of `COc1cc2c(c(OC)c1OC)-c1ccc(OC)c(=O)cc1[C@@H](NC(C)=O)CC2` [colchicine], the “Css, max of colchicine, geometric mean” value in series [1] (combined administration with compound of Formula I-1 10 mg qd) is 2.2048 ng/mL; in series [1] (setting [3]), 2.2601 ng/mL; in series [1] (setting [7]), 2.5089 ng/mL. The “AUCss of colchicine, geometric mean” value amounted to 18.3270 ng·h/mL in series [1] (setting [3]) and 18.4329 ng·h/mL in series [1] (setting [7]). In addition, the “decrease of Css,max of colchicine” value in series [1] (combined administration with febuxostat, no statistical difference (P>0.05)) came to 9.92%; in series [1] (setting [4]) it was 12.12%. The “decrease of AUCss of colchicine” value in series [1] (setting [4]) was 9.84%. For the same compound, the “AUCss of colchicine, Ratio (combined administration vs single administration)” value is listed as 90.16% in series [1] (setting [5]) and 99.43% in series [1] (setting [6]). The “Css, max of colchicine, Ratio (combined administration vs single administration)” value is listed as 87.88% in series [1] (setting [5]) and 90.08% in series [1] (setting [6]).
In the case of `O=C([O-])C1(Sc2ccnc3ccc(Br)cc23)CCC1.[Na+]` [compound of Formula I-1], in the series on serum uric acid (sUA) (compound of Formula I-1 10 mg qd administered sequentially, relative to baseline (D3-0 h)), the “average maximum reduction of serum sUA concentration” value came out at 60.883%. Further, the “effect of febuxostat on the steady-state exposure level of the compound of Formula I-1” value in series [1] (combined administration of febuxostat and the compound of Formula I-1) was “substantially no effect”. Moreover, the “Css, max of the compound of Formula I-1, geometric mean” value in series [1] (combined administration with febuxostat 80 mg (colchicine background)) was 1687.45 ng/mL; in series [1] (single administration, 10 mg qd (colchicine 0.5 mg qd background)), 1659.60 ng/mL. The AUC in series [1] (human, combined administration with febuxostat 80 mg (colchicine background)) amounted to 14700 ng·h/mL; in series [1] (human, single administration, 10 mg qd (colchicine 0.5 mg qd background)), 14400 ng·h/mL. Further, in series [1] (setting [8]), the “AUCss of the compound of Formula I-1, Ratio (combined administration vs single administration)” value was 102.31%. Also, in series [1] (setting [8]), the “Css, max of the compound of Formula I-1, Ratio (combined administration vs single administration)” value came to 101.68%.
Take `Cc1nc(-c2ccc(OCC(C)C)c(C#N)c2)sc1C(=O)O` [febuxostat]: the “average maximum reduction of serum uric acid (sUA) concentration” value in the series with serum uric acid (sUA) (single administration of febuxostat 80 mg, compared with single administration of colchicine at steady state) worked out at 22.144%. The “proportion of patients who achieved sUA<5.0 mg/dl” value in the series with sUA is 46.8%. In addition, in series [2], the “incidence of kidney-related adverse events” value is on record as 5.5%, the “serum creatinine increased ≥ 1.5 times the baseline” value was 2.8% and the “serum creatinine increased ≥2 times the baseline” value is given as 0%. Further, in series [1] (human, in vivo), the “AUC0-last of febuxostat, Ratio (combined administration vs single administration)” value amounted to 88.54% and the “Cmax of febuxostat, Ratio (combined administration vs single administration)” value stood at 86.42%.
